Patent US20260256792A1, “TREATMENT OF CHRONIC SPONTANEOUS URTICARIA BY ADMINISTERING (R)-2-[3-[4-AMINO-3-(2-FLUORO-4-PHENOXY-PHENYL)PYRAZOLO[3,4-D]PYRIMIDIN-1-YL]PIPERIDINE-1-CARBONYL]-4-METHYL-4-[4-(OXETAN-3-YL)PIPERAZIN-1-YL]PENT-2-ENENITRILE” (priority 2023, published 2026)

Test system: angioedema in CSU patients
Assay: Phase 2 CSU study: angioedema activity score over 7 days (AAS7)
Type: in vivo, human
Design: AAS7, Median / AAS7 Change from baseline, Median: scale not given here
Settings: Omalizumab-Naïve Population
Description: The study comprises a 12 week, randomized, double-blind, placebo-controlled, multi-center, dose-ranging efficacy and safety phase, followed by a 40 week open label extension (OLE) phase (see FIG. 1). The study consists of three phases and an optional OLE phase. […] The weekly angioedema activity score (AAS7) was proposed as a tertiary endpoint. […] Patients were to complete the AAS using the e-diary. The e-diary was to be used once daily on the same time of each day recording of participant's answers to the angioedema activity score over 7 days (AAS7) questionnaire.

CC(C)(C=C(C#N)C(=O)N1CCC[C@@H](n2nc(-c3ccc(Oc4ccccc4)cc3F)c3c(N)ncnc32)C1)N1CCN(C2COC2)CC1 [rilzabrutinib, (R)-2-[3-[4-amino-3-(2-fluoro-4-phenoxy-phenyl)pyrazolo[3,4-d]pyrimidin-1-yl]piperidine-1-carbonyl]-4-methyl-4-[4-(oxetan-3-yl)piperazin-1-yl]pent-2-enenitrile]
AAS7, Median (400 mg BID, Week 10): 0.00 | AAS7 Change from baseline, Mean (SD) (400 mg BID, Week 10): −29.84 (25.74) | AAS7 Change from baseline, Median (400 mg BID, Week 10): −24.00 | AAS7 Percent change from baseline, Mean (SD) (400 mg BID, Week 10): −45.78 (130.13) % | AAS7 Percent change from baseline, Median (400 mg BID, Week 10): −100.00% | AAS7, Median (400 mg BID, Week 11): 0.00 | AAS7 Change from baseline, Mean (SD) (400 mg BID, Week 11): −35.05 (24.68) | AAS7 Change from baseline, Median (400 mg BID, Week 11): −29.17 | AAS7 Percent change from baseline, Mean (SD) (400 mg BID, Week 11): −73.13 (48.67) % | AAS7 Percent change from baseline, Median (400 mg BID, Week 11): −100.00% | AAS7, Median (400 mg BID, Week 12): 0.00 | AAS7 Change from baseline, Mean (SD) (400 mg BID, Week 12): −35.73 (26.59) | AAS7 Change from baseline, Median (400 mg BID, Week 12): −37.00 | AAS7 Percent change from baseline, Mean (SD) (400 mg BID, Week 12): −76.62 (36.34) % | AAS7 Percent change from baseline, Median (400 mg BID, Week 12): −100.00% | AAS7, Mean (SD) (400 mg QPM, End of Study): 17.46 (29.82) | AAS7, Median (400 mg QPM, End of Study): 4.00 | AAS7 Change from baseline, Mean (SD) (400 mg QPM, End of Study): −4.04 (35.07) | AAS7 Change from baseline, Median (400 mg QPM, End of Study): −8.50 | AAS7 Percent change from baseline, Mean (SD) (400 mg QPM, End of Study): −14.64 (160.23) % | AAS7 Percent change from baseline, Median (400 mg QPM, End of Study): −92.00% | AAS7, Median (400 mg QPM, Week 1): 39.00 | AAS7 Change from baseline, Mean (SD) (400 mg QPM, Week 1): −18.63 (22.01) | AAS7 Change from baseline, Median (400 mg QPM, Week 1): −19.00 | AAS7 Percent change from baseline, Mean (SD) (400 mg QPM, Week 1): −30.81 (44.93) % | AAS7 Percent change from baseline, Median (400 mg QPM, Week 1): −35.35% | AAS7, Median (400 mg QPM, Week 2): 31.50 | AAS7 Change from baseline, Mean (SD) (400 mg QPM, Week 2): −20.23 (24.12) | AAS7 Change from baseline, Median (400 mg QPM, Week 2): −11.00 | AAS7 Percent change from baseline, Mean (SD) (400 mg QPM, Week 2): −36.22 (43.96) % | AAS7 Percent change from baseline, Median (400 mg QPM, Week 2): −31.31% | AAS7, Median (400 mg QPM, Week 3): 34.00 | AAS7 Change from baseline, Mean (SD) (400 mg QPM, Week 3): −20.88 (26.24) | AAS7 Change from baseline, Median (400 mg QPM, Week 3): −13.00 | AAS7 Percent change from baseline, Mean (SD) (400 mg QPM, Week 3): −29.46 (63.83) % | AAS7 Percent change from baseline, Median (400 mg QPM, Week 3): −26.00% | AAS7, Median (400 mg QPM, Week 4): 35.00 | AAS7 Change from baseline, Mean (SD) (400 mg QPM, Week 4): −23.93 (24.26) | AAS7 Change from baseline, Median (400 mg QPM, Week 4): −17.00 | AAS7 Percent change from baseline, Mean (SD) (400 mg QPM, Week 4): −46.35 (39.61) % | AAS7 Percent change from baseline, Median (400 mg QPM, Week 4): −46.27% | AAS7, Median (400 mg QPM, Week 5): 23.50 | AAS7 Change from baseline, Mean (SD) (400 mg QPM, Week 5): −29.64 (28.55) | AAS7 Change from baseline, Median (400 mg QPM, Week 5): −17.00 | AAS7 Percent change from baseline, Mean (SD) (400 mg QPM, Week 5): −55.69 (41.16) % | AAS7 Percent change from baseline, Median (400 mg QPM, Week 5): −59.46% | AAS7, Median (400 mg QPM, Week 6): 24.38 | AAS7 Change from baseline, Mean (SD) (400 mg QPM, Week 6): −28.36 (28.62) | AAS7 Change from baseline, Median (400 mg QPM, Week 6): −23.63 | AAS7 Percent change from baseline, Mean (SD) (400 mg QPM, Week 6): −47.92 (45.31) % | AAS7 Percent change from baseline, Median (400 mg QPM, Week 6): −55.14% | AAS7, Median (400 mg QPM, Week 7): 30.00 | AAS7 Change from baseline, Mean (SD) (400 mg QPM, Week 7): −26.95 (30.21) | AAS7 Change from baseline, Median (400 mg QPM, Week 7): −28.00 | AAS7 Percent change from baseline, Mean (SD) (400 mg QPM, Week 7): −33.18 (69.78) % | AAS7 Percent change from baseline, Median (400 mg QPM, Week 7): −50.00% | AAS7, Median (400 mg QPM, Week 8): 18.00 | AAS7 Change from baseline, Mean (SD) (400 mg QPM, Week 8): −29.80 (30.38) | AAS7 Change from baseline, Median (400 mg QPM, Week 8): −28.00 | AAS7 Percent change from baseline, Mean (SD) (400 mg QPM, Week 8): −49.05 (70.23) % | AAS7 Percent change from baseline, Median (400 mg QPM, Week 8): −66.00% | AAS7, Median (400 mg QPM, Week 9): 26.30 | AAS7 Change from baseline, Mean (SD) (400 mg QPM, Week 9): −28.66 (27.25) | AAS7 Change from baseline, Median (400 mg QPM, Week 9): −29.00 | AAS7 Percent change from baseline, Mean (SD) (400 mg QPM, Week 9): −46.39 (66.49) % | AAS7 Percent change from baseline, Median (400 mg QPM, Week 9): −56.26% | AAS7, Median (400 mg QPM, Week 10): 28.00 | AAS7 Change from baseline, Mean (SD) (400 mg QPM, Week 10): −28.93 (28.14) | AAS7 Change from baseline, Median (400 mg QPM, Week 10): −28.92 | AAS7 Percent change from baseline, Mean (SD) (400 mg QPM, Week 10): −46.90 (68.16) % | AAS7 Percent change from baseline, Median (400 mg QPM, Week 10): −50.17% | AAS7, Median (400 mg QPM, Week 11): 30.10 | AAS7 Change from baseline, Mean (SD) (400 mg QPM, Week 11): −29.18 (28.09) | AAS7 Change from baseline, Median (400 mg QPM, Week 11): −32.40 | AAS7 Percent change from baseline, Mean (SD) (400 mg QPM, Week 11): −47.96 (69.01) % | AAS7 Percent change from baseline, Median (400 mg QPM, Week 11): −52.90% | AAS7, Median (400 mg QPM, Week 12): 26.83 | AAS7 Change from baseline, Mean (SD) (400 mg QPM, Week 12): −29.03 (28.74) | AAS7 Change from baseline, Median (400 mg QPM, Week 12): −28.00 | AAS7 Percent change from baseline, Mean (SD) (400 mg QPM, Week 12): −48.34 (71.54) % | AAS7 Percent change from baseline, Median (400 mg QPM, Week 12): −59.34% | AAS7, Mean (SD) (400 mg TID, End of Study): 26.75 (33.68) | AAS7, Median (400 mg TID, End of Study): 16.00 | AAS7 Change from baseline, Mean (SD) (400 mg TID, End of Study): −21.25 (14.29) | AAS7 Change from baseline, Median (400 mg TID, End of Study): −27.00 | AAS7 Percent change from baseline, Mean (SD) (400 mg TID, End of Study): −58.11 (43.26) % | AAS7 Percent change from baseline, Median (400 mg TID, End of Study): −66.21% | AAS7, Median (400 mg TID, Week 1): 9.00 | AAS7 Change from baseline, Mean (SD) (400 mg TID, Week 1): −28.96 (27.34) | AAS7 Change from baseline, Median (400 mg TID, Week 1): −26.00 | AAS7 Percent change from baseline, Mean (SD) (400 mg TID, Week 1): −56.39 (51.49) % | AAS7 Percent change from baseline, Median (400 mg TID, Week 1): −89.41% | AAS7, Median (400 mg TID, Week 2): 9.33 | AAS7 Change from baseline, Mean (SD) (400 mg TID, Week 2): −30.89 (28.32) | AAS7 Change from baseline, Median (400 mg TID, Week 2): −27.00 | AAS7 Percent change from baseline, Mean (SD) (400 mg TID, Week 2): −58.84 (53.09) % | AAS7 Percent change from baseline, Median (400 mg TID, Week 2): −81.97% | AAS7, Median (400 mg TID, Week 3): 0.00 | AAS7 Change from baseline, Mean (SD) (400 mg TID, Week 3): −33.83 (29.99) | AAS7 Change from baseline, Median (400 mg TID, Week 3): −27.00 | AAS7 Percent change from baseline, Mean (SD) (400 mg TID, Week 3): −69.93 (48.65) % | AAS7 Percent change from baseline, Median (400 mg TID, Week 3): −100.00% | AAS7, Median (400 mg TID, Week 4): 5.00 | AAS7 Change from baseline, Mean (SD) (400 mg TID, Week 4): −36.18 (24.55) | AAS7 Change from baseline, Median (400 mg TID, Week 4): −27.00 | AAS7 Percent change from baseline, Mean (SD) (400 mg TID, Week 4): −76.56 (30.09) % | AAS7 Percent change from baseline, Median (400 mg TID, Week 4): −93.33% | AAS7, Median (400 mg TID, Week 5): 6.00 | AAS7 Change from baseline, Mean (SD) (400 mg TID, Week 5): −37.08 (26.17) | AAS7 Change from baseline, Median (400 mg TID, Week 5): −30.00 | AAS7 Percent change from baseline, Mean (SD) (400 mg TID, Week 5): −73.55 (35.00) % | AAS7 Percent change from baseline, Median (400 mg TID, Week 5): −88.24% | AAS7, Median (400 mg TID, Week 6): 0.00 | AAS7 Change from baseline, Mean (SD) (400 mg TID, Week 6): −32.35 (30.51) | AAS7 Change from baseline, Median (400 mg TID, Week 6): −27.00 | AAS7 Percent change from baseline, Mean (SD) (400 mg TID, Week 6): −63.91 (58.28) % | AAS7 Percent change from baseline, Median (400 mg TID, Week 6): −100.00% | AAS7, Median (400 mg TID, Week 7): 2.50 | AAS7 Change from baseline, Mean (SD) (400 mg TID, Week 7): −32.23 (26.57)
